# In paper PMC5587768, “Ligand activation induces different conformational changes in CXCR3 receptor isoforms as evidenced by plasmon waveguide resonance (PWR)” (Scientific Reports, 2017):
# “And” between values parts separate entries of the source, which are not always exact repeats. Equal values may be shown once.
# Assays:
# HEK-CTRL cell fragments = assay: Plasmon waveguide resonance (PWR) on HEK-CTRL cell fragments (empty GFP vector control); assay type: binding, human
# Text: (§1) In contrast, membrane fragments of cells expressing either CXCR3-A or CXCR3-B responded to ligand stimulation in a saturable manner (Fig. 2; Fig. S3). […] PWR is sensitive to both, mass and structural changes. Inasmuch as the ligand is far too small to contribute to a mass change by itself, the PWR spectral changes observed correspond to ligand-induced receptor conformational changes (upon formation of the R/L complex). From the saturable and hyperbolic binding response, a dissociation constant was determined. The cell fragments are quite stable after sensor immobilization as no alterations in the spectra were observed after repetitive and extensive washing with buffer. Furthermore, lipids and receptors are oriented with their long axis along the p-polarization axis as shown by the anisotropic response. Thus, spectral modifications observed in p-polarization reflect changes along the receptor main axis, while modifications in s-polarization reflect changes along the receptor minor axis (Fig. S2). In HEK-CXCR3-A cells, agonist binding led to an increase in the resonance minimum position for both p- and s-polarization. A positive shift in the resonance angle is correlated with an increase in the refractive index due to a mass increase in the system. Since the ligand, by itself, is too small to be able to produce such spectral changes, the response can only be attributed to conformational change in the receptor which is reflected by an increase in mass density. […] The negative shift, while of considerably smaller magnitude, results from a slight decrease in the mass density in the system and can be attributed to a conformational change leading to a looser and less ordered arrangement of the TM helices accompanied by a slight decrease in length. Thus, agonist-mediated CXCR3 activation leads to opposite conformational changes depending on the CXCR3 isoform.
# (§2) PWR measurements were performed in a homemade instrument equiped with a He-Ne laser, with a fixed wavelenght in the visible region (λ = 632 nm; Melles Griot), a rotating table allowing the incident angle to be changed by steps ≤1 mdeg (thus resolution being on that order; Newport) and a photodiode detector (Hamamatsu) to measure the reflected light as a function of the incident angle. The polarization angle of the incident beam is placed at 45° allowing both p- and s-polarized spectra to be obtained within the same angular scan. The sensor consisted in a BK-7 prism coated with silver and silica (to support waveguide modes)[36]. All measurements were performed at 22 °C in a temperature controlled room. More details about this technology can be found. The protocol for adhesion of cell fragments on silica (glass slides or PWR sensor) was adapted from reported work from Vogel and collaborators. […]
# CXCR3-B [1] = molecular target: T1, CXCR3-B (Homo sapiens, UniProt P49682); assay: Calcium flux by flow cytometry in HEK-CXCR3-B cells; assay type: cell-based
# T1 construct: The coding regions of human CXCR3-A or CXCR3-B cDNA; expressed in transfected cells; host or cells: HEK-293, stably transfected (HEK-CXCR3-B)
# T1 sequence (P49682 1-415 isoform P49682-2): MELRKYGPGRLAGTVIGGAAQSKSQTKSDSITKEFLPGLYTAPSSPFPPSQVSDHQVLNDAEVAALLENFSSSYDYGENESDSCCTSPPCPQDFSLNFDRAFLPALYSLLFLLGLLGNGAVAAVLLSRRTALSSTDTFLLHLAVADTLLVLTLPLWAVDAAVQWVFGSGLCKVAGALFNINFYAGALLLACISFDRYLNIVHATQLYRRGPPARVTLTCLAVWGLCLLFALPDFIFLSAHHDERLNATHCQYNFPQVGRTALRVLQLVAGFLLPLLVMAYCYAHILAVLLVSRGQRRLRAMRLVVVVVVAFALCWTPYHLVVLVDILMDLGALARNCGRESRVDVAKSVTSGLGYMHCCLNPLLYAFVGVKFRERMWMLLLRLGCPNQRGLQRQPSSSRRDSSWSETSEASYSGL
# Experimental: (§3) Human Embryonic Kidney (HEK-293) cell lines, were regularly tested for contamination and were all mycoplasma-free. Cells were cultured in Dulbecco’s Modified Eagle’s medium (DMEM, Thermo Fisher Scientific) supplemented with 10% Fetal Bovine Serum (FBS), 5% antibiotics (Penicillin and […]) and 5% L-glutamine. All cells were grown at 37 °C, 5% CO2 and split at 70–90% of confluence with 0.25% Trypsin. Cell transfection was performed using Effecten kit (Qiagen) according to the manufacter’s instruction. HEK-CTRL (HEK-293 stably transfected with empty pEGFPN2 vectors) HEK-CXCR3-A cells and HEK-CXCR3-B (HEK-293 stably transfected with pEGFPN2 + CXCR3-A or pEGFPN2 + CXCR3-B vectors, respectivly) were grown in the presence of Zeocin (200 µg/ml). For inhibition experiments, cells were pretreated 1 h with the CXCR3 antagonist SCH546738 at dose-dependant concentration. SCH546738 is a small molecular lipophilic molecule, with the chemical formula: C23H31Cl2N7O. […] For this reason a concentration range from 0.5 to 2.2 nM has been used.
# (§4) Intracellular calcium concentration was measured using Calcium Assay Kit (BD 640176) according to the manufacter’s procedure on an AccuriC6 flow cytometer equipped with BD AccuriC6 software (BD, San Jose, CA). Cells were placed in suspension and 1X Dye loading solution was added for 20 min at 37 °C. Calcium concentration was then recorded for 5 min on the AccuriC6 flow cytometer. CXCR3 agonist stimulation was performed after 2 min of recording and intracellular calcium increase was visualized. Calcium concentration after stimulation was normalized by calcium concentration before stimulation. Cells without 1X dye loading solution were used as a negative control in order to quantify the background level.
# CXCR3-B [2] = molecular target: T1, CXCR3-B; assay: Plasmon waveguide resonance (PWR) on HEK-CXCR3-B cell membrane fragments; assay type: binding; details: for Kd: HEK-CXCR3-B cell fragments, incremental ligand addition, hyperbolic fit
# Text: (§5) Ligand-mediated activation of CXCR3 was studied by PWR and flow cytometry measuring calcium flux. The former technique allows to determine the affinity, ligand-binding kinetics and anisotropy of the events occurring at the sensor surface. This technique gives the possibility of following resonance with two types of polarizations, p- and s-polarizations. PWR can be applied both to artificial lipid model systems with reconstituted receptors or to cell fragments[27]–[34]. In the present study, cell membrane fragments from cells expressing the CXCR3-A and CXCR3-B receptors were immobilized on the PWR sensor which is composed of a prism coated with a silver layer and overcoated with a silica layer. The prism is pre-treated with polylysine to promote cell adhesion by electrostatic interactions between the negative charges provided by the cell surface glycosaminoglycans (GAGs) and the positive charges of polylysine. The quality of HEK-CTRL, HEK-CXCR3-A and HEK-CXCR3-B membrane fragments was verified by confocal microscopy by visualizing the GFP-tagged receptors using glass slides of the same material (silica) than the outer layer of the sensor surface (Fig. 1A). The presence of fluorescent membrane fragments on the glass slide of few μm were evidenced in agreement with reported literature.
# as §1
# as §2, with “found.” for “found. The protocol for adhesion of cell fragments on silica (glass slides or PWR sensor) was adapted from reported work from Vogel and collaborators.”
# CXCR3 = details: cited from earlier work
# CXCR3-A [3] = molecular target: T2, CXCR3-A (Homo sapiens, UniProt P49682); assay: Calcium flux by flow cytometry in HEK-CXCR3-A cells; assay type: cell-based
# T2 construct: The coding regions of human CXCR3-A or CXCR3-B cDNA; expressed in transfected cells; host or cells: HEK-293, stably transfected (HEK-CXCR3-A)
# T2 sequence (P49682 1-368): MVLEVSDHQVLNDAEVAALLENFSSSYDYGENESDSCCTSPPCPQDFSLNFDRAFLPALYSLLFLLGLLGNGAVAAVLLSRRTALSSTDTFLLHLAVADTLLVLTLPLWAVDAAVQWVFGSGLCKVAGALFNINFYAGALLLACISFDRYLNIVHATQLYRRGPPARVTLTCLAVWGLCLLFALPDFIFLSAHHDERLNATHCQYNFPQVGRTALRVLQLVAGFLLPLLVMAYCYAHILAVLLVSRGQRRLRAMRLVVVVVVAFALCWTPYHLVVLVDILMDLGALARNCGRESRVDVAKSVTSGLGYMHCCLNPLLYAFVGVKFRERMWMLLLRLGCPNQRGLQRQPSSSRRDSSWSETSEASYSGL
# Experimental: as §3, §4
# CXCR3-A [4] = molecular target: T2, CXCR3-A; assay: Plasmon waveguide resonance (PWR) on HEK-CXCR3-A cell membrane fragments; assay type: binding; details: for Kd: HEK-CXCR3-A cell fragments, incremental ligand addition, hyperbolic fit; for Difference in KD between CXCR3-A and CXCR3-B (higher affinity for CXCR3-A): KD CXCR3-B versus KD CXCR3-A
# Text: as §5, §1
# as §2, with “found.” for “found. The protocol for adhesion of cell fragments on silica (glass slides or PWR sensor) was adapted from reported work from Vogel and collaborators.”
smiles,measurement,setting,value
CC[C@H]1CN(c2nc(N)c(C(N)=O)nc2Cl)CCN1C1CCN(Cc2ccc(Cl)cc2)CC1 [SCH546738],PWR response of control cell fragments (non-specific binding),HEK-CTRL cell fragments; HEK-CTRL cell fragments,did not respond
same,Receptor activation by agonist (calcium flux) after SCH546738 pretreatment,CXCR3-B [1]; HEK-CXCR3-B cells pretreated with SCH546738,no longer activated
same,Inhibition of CXCR3-B activation (calcium flux),CXCR3-B [1]; at 1 nM,25%
same,Kd,CXCR3-B [2]; PWR,1.5 nM
same,Agonist binding after SCH546738 at 1 nM,"CXCR3-B [2]; PWR, HEK-CXCR3-B, SCH546738 1 nM",binding was still observed
same,Agonist binding after SCH546738 at saturating concentration,"CXCR3-B [2]; PWR, HEK-CXCR3-B, SCH546738 2.2 nM, 1 h",completely abolished
same,Kd,"CXCR3; other reports and methods, read-out: Affinity to CXCR3 reported",0.8 to 2.2 nM and 0.4 to 2.2 nM
same,Receptor activation by agonist (calcium flux) after SCH546738 pretreatment,CXCR3-A [3]; HEK-CXCR3-A cells pretreated with SCH546738,no longer activated
same,Inhibition of CXCR3-A activation (calcium flux),CXCR3-A [3]; at 1 nM,more than 70%
same,Kd,CXCR3-A [4]; PWR,0.5 nM
same,Agonist binding after SCH546738 at 1 nM,"CXCR3-A [4]; PWR, HEK-CXCR3-A, SCH546738 1 nM",totally abrogated
same,Agonist binding after SCH546738 at saturating concentration,"CXCR3-A [4]; PWR, HEK-CXCR3-A, SCH546738 2.2 nM, 1 h",completely abolished
same,Difference in KD between CXCR3-A and CXCR3-B (higher affinity for CXCR3-A),CXCR3-A [4]; PWR,3 fold
NC(N)=NCCC[C@H](NC(=O)[C@@H]1Cc2ccccc2CN1C(=O)CCC(=O)c1ccccc1)C(=O)NCC1CCCCC1 [PS372424],"Shift in resonance minimum position, P-pol","HEK-CTRL cell fragments; HEK-CTRL, p-polarization",0 +/- 1 mdeg
same,"Shift in resonance minimum position, S-pol","HEK-CTRL cell fragments; HEK-CTRL, s-polarization",0 +/- 1 mdeg
same,KD,"HEK-CTRL cell fragments; PWR, HEK-CTRL cell fragments",No binding
same,Intracellular calcium flux after agonist stimulation,CXCR3-B [1]; HEK-CXCR3-B cells,increase intracellular calcium flux
same,"Shift in resonance minimum position, P-pol","CXCR3-B [2]; HEK-CXCR3-B, p-polarization, incremental addition to saturation",-5 +/- 1 mdeg
same,"Shift in resonance minimum position, S-pol","CXCR3-B [2]; HEK-CXCR3-B, s-polarization, incremental addition to saturation",-4 +/- 1 mdeg
same,Kd,CXCR3-B [2]; PWR,450 nM
same,IC50,"CXCR3; isoforms not distinguished, read-out: IC50 reported for binding to CXCR3",42 nM
same,Intracellular calcium flux after agonist stimulation,CXCR3-A [3]; HEK-CXCR3-A cells,increase intracellular calcium flux
same,"Shift in resonance minimum position, P-pol","CXCR3-A [4]; HEK-CXCR3-A, p-polarization, incremental addition to saturation",16 +/- 12 mdeg
same,"Shift in resonance minimum position, S-pol","CXCR3-A [4]; HEK-CXCR3-A, s-polarization, incremental addition to saturation",4 +/- 1 mdeg
same,Kd,CXCR3-A [4]; PWR,40 nM
same,Difference in KD between CXCR3-A and CXCR3-B (higher affinity for CXCR3-A),CXCR3-A [4]; PWR,10 fold
